From patent publication US7030137B2, “Substituted thiophenes with antibacterial activity” (Replidyne, Inc., priority 2003, dated 2006) come the findings set out here.

In general, IC50 refers to the concentration at which inhibition is half-maximal.

The subject of one test is S. aureus. The test can be described thus: MIC S. aureus (standard MIC assay modified by inclusion of cyclodextrin). The format is cell-based. To be noted: Staphylococcus aureus. The method, then:
(§1) Compounds of the present invention were assayed for antibacterial activity against a range of pathogenic organisms (strains of S aureus, S pneumoniae, E faecalis, H influenzae and M catarrhalis) in a standard MIC assay modified by the inclusion of cyclodextrin, to assist with solubility.

A further test has as its system S. pneumo. Description: MIC S. pneumo (standard MIC assay modified by inclusion of cyclodextrin). The test is classed as cell-based. The settings on record: Streptococcus pneumoniae. As to the method:
as §1

The subject of another test is H. influenzae. The test can be described thus: MIC H. influenzae (standard MIC assay modified by inclusion of cyclodextrin). The format is cell-based. To be noted: Haemophilus influenzae. As to the method: as §1
Test [1] concerns the target T1, recombinant H. influenzae MRS (Haemophilus influenzae, UniProt P43828).
T1 construct: made in house
The test can be described thus: Enzyme Inhibition (H. influenzae MRS) aminoacylation assay. The format is biochemical. To be noted: read-out: IC50 against H. influenzae MRS. As to the method:
2. Enzyme Inhibition (H. influenzae MRS)—aminoacylation assay
Compounds of the present invention may be assayed for their ability to inhibit the enzyme methionyl tRNA synthetase (MRS), using recombinant H. influenzae MRS(R. D. Fleischmann et al., Science, 269, 496–512, 1995), as follows:
The reaction is started by adding 20 μl appropriately diluted pure enzyme (pre-incubated with inhibitor) to 25 μl reaction mix for 10 min at room temperature. The reaction is terminated by the addition of 150 μl 167 mM sodium citrate, pH 2.15 containing phosphodiesterase (PDE) SPA beads (0.833 mg/ml). The binding of the radiolabelled product to the bead brings the isotope into close enough proximity to allow radiation from the tritium to excite the scintillant within the bead. Any unbound radiolabel is not close enough to the scintillant to allow this energy transfer, so no signal is generated. Following termination of the reaction, plates are spun at 2500 rpm for 5 min in a Mistral 3000E plate centrifuge (or alternatively allowed to stand for 1 hour). The assay is conducted in 96-well Optiplates (Packard). Plates are counted on a TopCount. (Packard 96 well counter).
Mixed E. coli MRE 600 tRNA and ATP were purchased from Boehringer-Mannheim, L-[methyl-^3H]methionine and phosphodiesterase scintillation proximity (SPA) beads from Amersham Pharmacia Biotech and other reagents from Sigma.

Test [2] relates to S. aureus, S. pneumoniae, and E. faecalis. Description: MIC against some strains of gram positive pathogens. The format is cell-based. As to the method: as §1
Test [3] concerns M catarrhalis and H. influenzae. Description: MIC against some strains of gram negative pathogens. The test is classed as cell-based. The settings on record: Haemophilus influenzae. As to the method: as §1

Structures are written as SMILES. Converted amounts (≈) assume the structure as drawn. Counter-ions that a name gives are not always drawn.

T1 sequence (P43828 whole entry): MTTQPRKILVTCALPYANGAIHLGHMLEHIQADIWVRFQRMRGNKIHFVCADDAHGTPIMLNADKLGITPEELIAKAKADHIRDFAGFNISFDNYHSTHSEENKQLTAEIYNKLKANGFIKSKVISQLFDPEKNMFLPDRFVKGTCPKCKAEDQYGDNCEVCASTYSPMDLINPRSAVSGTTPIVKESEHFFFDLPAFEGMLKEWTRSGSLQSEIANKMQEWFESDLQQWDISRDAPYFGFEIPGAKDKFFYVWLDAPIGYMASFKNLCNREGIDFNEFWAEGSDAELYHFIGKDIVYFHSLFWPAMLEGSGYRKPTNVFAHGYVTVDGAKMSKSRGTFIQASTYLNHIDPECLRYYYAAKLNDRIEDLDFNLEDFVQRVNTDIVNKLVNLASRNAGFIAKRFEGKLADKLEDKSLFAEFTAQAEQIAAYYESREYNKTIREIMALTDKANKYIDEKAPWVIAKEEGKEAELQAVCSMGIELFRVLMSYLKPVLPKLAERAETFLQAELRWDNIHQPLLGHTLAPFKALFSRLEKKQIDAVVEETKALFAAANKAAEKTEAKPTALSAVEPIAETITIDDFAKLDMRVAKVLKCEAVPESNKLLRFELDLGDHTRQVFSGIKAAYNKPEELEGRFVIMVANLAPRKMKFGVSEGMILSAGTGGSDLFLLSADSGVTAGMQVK

With `C=C(F)c1sc(CNCCCNc2nc3cscc3[nH]2)c(C)c1Br` [Example 21, N-(4-bromo-5-(1-fluorovinyl)-3-methylthiophen-2-ylmethyl)-N′-(1H-thieno[3,4-d]imidazol-2-yl)propane-1,3-diamine], the MIC is 0.06 µg/mL (≈ 0.14 µM) in the test with S. aureus; 0.25 µg/mL (≈ 0.582 µM) in the test with S. pneumo; 8 µg/mL (≈ 18.6 µM) with H. influenzae; 0.06 to 0.5 µg/mL (≈ 0.14 to 1.16 µM) in test [2]; 0.13 to 8 µg/mL (≈ 0.303 to 18.6 µM) in test [3]. Moreover, in test [1], the IC50 is no more than 200 nM.
With `Cc1c(CNCCCNc2nc(=O)c3sccc3[nH]2)sc(Br)c1Br` [Example 25, N-(4,5-Dibromo-3-methylthiophen-2-ylmethyl)-N′-(1H-thieno [3,2-d]pyrimidin-4-one)propane-1,3-diamine], the MIC against S. aureus is 0.5 µg/mL (≈ 1.02 µM); with S. pneumo, 2 µg/mL (≈ 4.06 µM); against H. influenzae, 32 µg/mL (≈ 65 µM); in test [2], 0.06 to 0.5 µg/mL (≈ 0.122 to 1.02 µM). Also, the IC50 in test [1] is no more than 200 nM.
As for `C=C(F)c1sc(CNCCCNc2nc3ccccc3[nH]2)c(C)c1Br` [Example 22, N-(4-bromo-5-(1-fluorovinyl)-3-methylthiophen-2-ylmethyl)-N′-(1H-benzimidazole)propane-1,3-diamine], the MIC in the test with S. aureus is 0.13 µg/mL (≈ 0.307 µM); against S. pneumo, 0.5 µg/mL (≈ 1.18 µM); in the test on H. influenzae it was 16 µg/mL (≈ 37.8 µM); in test [2], 0.06 to 0.5 µg/mL (≈ 0.142 to 1.18 µM). In addition, the IC50 in test [1] is no more than 200 nM.
As to `C=C(F)c1sc(CNCCCNc2cc(=O)c3ccccc3[nH]2)c(C)c1Br` [Example 4, N-(4-bromo-5-(1-fluorovinyl)-3-methylthiophen-2-ylmethyl)-N′-(1H-quinolin-4-one)propane-1,3-diamine], the MIC is 0.06 µg/mL (≈ 0.133 µM) in the test on S. aureus; 0.06 µg/mL (≈ 0.133 µM) in the test on S. pneumo; 4 µg/mL (≈ 8.88 µM) with H. influenzae; 0.06 to 0.5 µg/mL (≈ 0.133 to 1.11 µM) in test [2]; 0.13 to 8 µg/mL (≈ 0.289 to 17.8 µM) in test [3].
As to `C=Cc1sc(CNCCCNc2nc3nnccc3[nH]2)c(C)c1Br` [Example 13, N-(4-bromo-3-methyl-5-vinylthiophen-2-ylmethyl)-N′-(5H-imidazo[4,5-c]pyridazin-6-yl)propane-1,3-diamine dihydrochloride], the MIC against S. aureus is 0.5 µg/mL; with S. pneumo it was 2 µg/mL; in the test on H. influenzae, 2 µg/mL; in test [2], 0.06 to 0.5 µg/mL; in test [3], 0.13 to 8 µg/mL.
For the compound `C=C(F)c1sc(CNCCCNc2nc3ncccc3[nH]2)c(C)c1Br` [Example 17, N-(4-bromo-5-(1-fluorovinyl)-3-methylthiophen-2-ylmethyl)-N′-(1H-imidazo[4,5-b]pyridin-2-yl)-propane-1,3-diamine], the MIC against S. aureus is 0.06 µg/mL (≈ 0.141 µM); against S. pneumo, 0.25 µg/mL (≈ 0.589 µM); in the test with H. influenzae it was 64 µg/mL (≈ 151 µM); in test [2], 0.06 to 0.5 µg/mL (≈ 0.141 to 1.18 µM). Further, the IC50 in test [1] is no more than 200 nM.
For the compound `Cc1c(CNCCCNc2nc3nnccc3[nH]2)sc(C2CC2)c1Br` [Example 11, N-(4-Bromo-5-cyclopropyl-3-methylthiophen-2-ylmethyl)-N′-(5H-imidazo[4,5-c]pyridazin-6-yl)propane-1,3-diamine dihydrochloride], the MIC was 2 µg/mL in the test with S. aureus; 8 µg/mL in the test with S. pneumo; 2 µg/mL in the test on H. influenzae; 1 to 2 µg/mL in test [2]; 0.13 to 8 µg/mL in test [3].
With `Cc1c(CNCCCNc2nc3cscc3[nH]2)sc(Br)c1Br` [Example 18, N-(4,5-Dibromo-3-methylthiophen-2-ylmethyl)-N′-(1H-thieno[3,4-d]imidazol-2-yl)propane-1,3-diamine], the MIC is 0.13 µg/mL (≈ 0.28 µM) against S. aureus; 0.25 µg/mL (≈ 0.539 µM) against S. pneumo; 8 µg/mL (≈ 17.2 µM) against H. influenzae; 0.06 to 0.5 µg/mL (≈ 0.129 to 1.08 µM) in test [2]; 0.13 to 8 µg/mL (≈ 0.28 to 17.2 µM) in test [3]. Moreover, the IC50 in test [1] is no more than 200 nM.
Turning to `C#Cc1sc(CNCCCNc2nc3nnccc3[nH]2)c(C)c1Br` [Example 15, N-(4-bromo-5-ethynyl-3-methylthiophen-2-ylmethyl)-N′-(5H-imidazo[4,5-c]pyridazin-6-yl)propane-1,3-diamine dihydrochloride], the MIC in the test on S. aureus is 1 µg/mL; against S. pneumo, 0.5 µg/mL; with H. influenzae it was 0.5 µg/mL; in test [2], 1 to 2 µg/mL; in test [3] it was 0.13 to 8 µg/mL.
